# Experimental data reported in US20150010928A1, “MEANS AND METHODS FOR ASSESSING AN ENDOCRINE DISEASE OR DISORDER” (priority 2012, published 2015).
# Marks after values point to notes of the source that are not given here.
# System: male rats
# Test: Plasma metabolite profiling (GC-MS, LC-MS, SPE-LC-MS) in male rats dosed once daily over 28 days (OECD 407)
# Assay type: in vivo, rat
# Set-up: key to erythro-Sphingoside (d18:1) / Tricosanoic acid (C23:0) / beta-Sitosterol / Tryptophan: ratio of treated group mean to untreated control group mean
# Method: Each dose group in the studies consisted of five rats per sex. Additional groups of each 5 male and female animals served as controls. […] All animals of the animal population were kept under the same constant temperature (20-24±3° C.) and the same constant humidity (30-70%). The animals of the animal population were fed ad libitum. The food to be used was essentially free of chemical or microbial contaminants. Drinking water was also offered ad libitum. Accordingly, the water was free of chemical and microbial contaminants as laid down in the European Drinking Water Directive 98/83/EG. The illumination period was 12 hours light followed by 12 hours darkness (12 hours light, from 6:00 to 18:00, and 12 hours darkness, from 18:00 to 6:00). […] The test substances (compounds) in the Tables 1 to 17 below were dosed and administered as described in the Table 18.
# In the morning of day 7, 14, and 28, blood was taken from the retroorbital venous plexus from fasted anaesthetized animals. From each animal, 1 ml of blood was collected with EDTA as anticoagulant. The samples were centrifuged for generation of plasma. All plasma samples were covered with a N2 atmosphere and then stored at −80° C. until analysis.
# For mass spectrometry-based metabolite profiling analyses plasma samples were extracted and a polar and a non-polar (lipid) fraction was obtained. For GC-MS analysis, the non-polar fraction was treated with methanol under acidic conditions to yield the fatty acid methyl esters. Both fractions were further derivatised with O-methyl-hydroxyamine hydrochloride and pyridine to convert Oxogroups to O-methyloximes and subsequently with a silylating agent before analysis. In LC-MS analysis, both fractions were reconstituted in appropriate solvent mixtures. HPLC was performed by gradient elution on reversed phase separation columns. Mass spectrometric detection which allows target and high sensitivity MRM (Multiple Reaction Monitoring) profiling in parallel to a full screen analysis was applied as described in WO2003073464.
# Steroids and their metabolites were measured by online SPE-LC-MS (Solid phase extraction-LC-MS).
# Following comprehensive analytical validation steps, the data for each analyte were normalized against data from pool samples. These samples were run in parallel through the whole process to account for process variability. The significance of treatment group values specific for sex, treatmentduration and metabolite was determined by comparing means of the treated groups to the means of the respective untreated control groups using WELCH-test and quantified with treatment ratios versus control and p-values.
# The identification of the most important biomarkers per toxicity pattern was done by a ranking of the analytes in the tables below. Therefore the metabolic changes in reference treatments of a given pattern (shown in the table) were compared with changes of the same metabolite in other unrelated treatments. […] The maximum absolute value of the respective TVALUE was taken to indicate the most important metabolite for the pattern.
compound,measurement,setting,value
CC(C)C(=O)Nc1ccc([N+](=O)[O-])c(C(F)(F)F)c1 [Flutamide],3-O-Methylsphingosine (d18:1),"m7, high dose, Table 10a",1.27 *
same,Nervonic acid (C24:cis[15]1),"m7, high dose, Table 10a",1.39 *
same,Stearic acid (C18:0),"m7, high dose, Table 10a",1.15 *
same,alpha-Tocopherol,"m7, high dose, Table 10a",1.55 *
same,threo-Sphingosine (d18:1),"m7, high dose, Table 10a",1.39 *
same,Thyroxine (T4),"m7, high dose, Table 10b",0.46 *
same,trans-4-Hydroxyproline,"m7, high dose, Table 10b",0.79 *
same,3-Methoxytyrosine,"m7, high dose, Table 11a",1.97 *
same,3-O-Methylsphingosine (d18:1),"m7, high dose, Table 11a",1.27 *
same,Androstenedione,"m7, high dose, Table 11a",19.42 *
same,Behenic acid (C22:0),"m7, high dose, Table 11a",1.89 *
same,Dodecanol,"m7, high dose, Table 11a",1.2 *
same,Eicosanoic acid (C20:0),"m7, high dose, Table 11a",2.11 *
same,"Galactose, lipid fraction","m7, high dose, Table 11a",1.44 *
same,"Glycerol phosphate, lipid fraction","m7, high dose, Table 11a",1.57 *
same,Nervonic acid (C24:cis[15]1),"m7, high dose, Table 11a",1.39 *
same,Noradrenaline (Norepinephrine),"m7, high dose, Table 11a",1.36 *
same,"Phosphatidylcholine (C18:0, C18:2)","m7, high dose, Table 11a",1.38 *
same,Phytosphingosine,"m7, high dose, Table 11a",2.29 *
same,Stearic acid (C18:0),"m7, high dose, Table 11a",1.15 *
same,Testosterone,"m7, high dose, Table 11a",10.33 *
same,Tryptophan,"m7, high dose, Table 11a",1.22 *
same,"dihomo-gamma-Linolenic acid (C20:cis[8,11,14]3)","m7, high dose, Table 11a",1.55 *
same,"myo-Inositol-2-phosphate, lipid fraction","m7, high dose, Table 11a",2.52 *
same,threo-Sphingosine (d18:1),"m7, high dose, Table 11a",1.39 *
same,3-Hydroxybutyrate,"m7, high dose, Table 11b",0.53 *
same,4-Hydroxy-3-methoxyphenylglycol (HMPG),"m7, high dose, Table 11b",0.67 *
same,18-Hydroxy-11-deoxycorticosterone,"m7, high dose, Table 11b",0.75^
same,21-Hydroxyprogesterone (11-Deoxycorticosterone),"m7, high dose, Table 11b",0.65^
same,Citrate,"m7, high dose, Table 11b",0.74 *
same,Coenzyme Q9,"m7, high dose, Table 11b",0.73 *
same,Coenzyme Q10,"m7, high dose, Table 11b",0.58 *
same,Corticosterone,"m7, high dose, Table 11b",0.83^
same,Metanephrine,"m7, high dose, Table 11b",0.5 *
same,Palmitoleic acid (C16:cis[9]1),"m7, high dose, Table 11b",0.77 *
same,Progesterone,"m7, high dose, Table 11b",0.64^
same,trans-4-Hydroxyproline,"m7, high dose, Table 11b",0.79 *
same,3-O-Methylsphingosine (d18:1),"m14, high dose, Table 10a",0.78
same,5-O-Methylsphingosine (d18:1),"m14, high dose, Table 10a",0.81
same,Cysteine,"m14, high dose, Table 10a",0.96
same,Lignoceric acid (C24:0),"m14, high dose, Table 10a",0.9
same,Nervonic acid (C24:cis[15]1),"m14, high dose, Table 10a",0.93
same,Oleic acid (C18:cis[9]1),"m14, high dose, Table 10a",1.1
same,Stearic acid (C18:0),"m14, high dose, Table 10a",1.01
same,alpha-Tocopherol,"m14, high dose, Table 10a",1.24
same,erythro-Sphingoside (d18:1),"m14, high dose, Table 10a",0.79
same,threo-Sphingosine (d18:1),"m14, high dose, Table 10a",0.95
same,Oleic acid (C18:cis[9]1),"m14, high dose, Table 10b",1.1
same,"Phosphatidylcholine (C16:0, C16:0)","m14, high dose, Table 10b",0.7 *
same,Thyroxine (T4),"m14, high dose, Table 10b",0.57^
same,trans-4-Hydroxyproline,"m14, high dose, Table 10b",0.89 *
same,3-Methoxytyrosine,"m14, high dose, Table 11a",1.47 *
same,3-O-Methylsphingosine (d18:1),"m14, high dose, Table 11a",0.78
same,5-O-Methylsphingosine (d18:1),"m14, high dose, Table 11a",0.81
same,Androstenedione,"m14, high dose, Table 11a",46.48 *
same,"Arachidonic acid (C20:cis[5,8,11,14]4)","m14, high dose, Table 11a",0.99
same,Cholesterol,"m14, high dose, Table 11a",1.07
same,Cysteine,"m14, high dose, Table 11a",0.96
same,Eicosanoic acid (C20:0),"m14, high dose, Table 11a",1.84 *
same,"Galactose, lipid fraction","m14, high dose, Table 11a",1.07
same,"Glycerol phosphate, lipid fraction","m14, high dose, Table 11a",1.18 *
same,Indole-3-lactic acid,"m14, high dose, Table 11a",1.06
same,Lignoceric acid (C24:0),"m14, high dose, Table 11a",0.9
same,Nervonic acid (C24:cis[15]1),"m14, high dose, Table 11a",0.93
same,Noradrenaline (Norepinephrine),"m14, high dose, Table 11a",1.85 *
same,"Phosphate, lipid fraction","m14, high dose, Table 11a",1.08
same,"Phosphatidylcholine (C18:0, C18:2)","m14, high dose, Table 11a",1.17
same,"Phosphatidylcholine (C18:0, C20:3)","m14, high dose, Table 11a",1.01
same,"Phosphatidylcholine (C18:0, C22:6)","m14, high dose, Table 11a",0.96
same,"Phosphatidylcholine (C18:0,C18:1)","m14, high dose, Table 11a",1.15
same,Stearic acid (C18:0),"m14, high dose, Table 11a",1.01
same,Testosterone,"m14, high dose, Table 11a",16.89 *
same,Tricosanoic acid (C23:0),"m14, high dose, Table 11a",0.9
same,Tryptophan,"m14, high dose, Table 11a",1.15
same,alpha-Tocopherol,"m14, high dose, Table 11a",1.16
same,beta-Sitosterol,"m14, high dose, Table 11a",0.91
same,"dihomo-gamma-Linolenic acid (C20:cis[8,11,14]3)","m14, high dose, Table 11a",1.46 *
same,erythro-Sphingosine (d18:1),"m14, high dose, Table 11a",0.79
same,threo-Sphingosine (d18:1),"m14, high dose, Table 11a",0.95
same,3-Hydroxybutyrate,"m14, high dose, Table 11b",0.72 *
same,4-Hydroxy-3-methoxyphenylglycol (HMPG),"m14, high dose, Table 11b",0.7 *
same,18-Hydroxy-11-deoxycorticosterone,"m14, high dose, Table 11b",0.48 *
same,21-Hydroxyprogesterone (11-Deoxycorticosterone),"m14, high dose, Table 11b",0.31 *
same,Citrate,"m14, high dose, Table 11b",0.88 *
same,Coenzyme Q10,"m14, high dose, Table 11b",0.43 *
same,Corticosterone,"m14, high dose, Table 11b",0.38 *
same,Metanephrine,"m14, high dose, Table 11b",0.61 *
same,Palmitoleic acid (C16:cis[9]1),"m14, high dose, Table 11b",0.68 *
same,"Phosphatidylcholine (C16:0, C16:0)","m14, high dose, Table 11b",0.7 *
same,Progesterone,"m14, high dose, Table 11b",0.33 *
same,trans-4-Hydroxyproline,"m14, high dose, Table 11b",0.89 *
same,3-O-Methylsphingosine (d18:1),"m28, high dose, Table 10a",1.52^
same,Cysteine,"m28, high dose, Table 10a",1.41 *
same,Lignoceric acid (C24:0),"m28, high dose, Table 10a",1.3 *
same,Nervonic acid (C24:cis[15]1),"m28, high dose, Table 10a",1.46 *
same,alpha-Tocopherol,"m28, high dose, Table 10a",1.54 *
same,threo-Sphingosine (d18:1),"m28, high dose, Table 10a",1.38 *
same,"Phosphatidylcholine (C16:0, C16:0)","m28, high dose, Table 10b",0.81 *
same,Thyroxine (T4),"m28, high dose, Table 10b",0.72^
same,trans-4-Hydroxyproline,"m28, high dose, Table 10b",0.72 *
same,3-Methoxytyrosine,"m28, high dose, Table 11a",1.55 *
same,3-O-Methylsphingosine (d18:1),"m28, high dose, Table 11a",1.52 *
same,Androstenedione,"m28, high dose, Table 11a",18.79 *
same,Behenic acid (C22:0),"m28, high dose, Table 11a",1.34 *
same,Cholesterol,"m28, high dose, Table 11a",1.22 *
same,Cysteine,"m28, high dose, Table 11a",1.41 *
same,Eicosanoic acid (C20:0),"m28, high dose, Table 11a",1.93 *
same,Histidine,"m28, high dose, Table 11a",0.98^
same,Lignoceric acid (C24:0),"m28, high dose, Table 11a",1.3 *
same,Nervonic acid (C24:cis[15]1),"m28, high dose, Table 11a",1.46 *
same,Noradrenaline (Norepinephrine),"m28, high dose, Table 11a",0.93^
same,"Phosphatidylcholine (C18:0, C20:3)","m28, high dose, Table 11a",0.94^
same,"Phosphatidylcholine (C18:0, C22:6)","m28, high dose, Table 11a",1.34 *
same,Testosterone,"m28, high dose, Table 11a",8.45 *
same,Threonine,"m28, high dose, Table 11a",1.22 *
same,alpha-Tocopherol,"m28, high dose, Table 11a",1.19^
same,beta-Sitosterol,"m28, high dose, Table 11a",0.89^
same,"dihomo-gamma-Linolenic acid (C20:cis[8,11,14]3)","m28, high dose, Table 11a",2.58 *
same,"myo-Inositol-2-phosphate, lipid fraction","m28, high dose, Table 11a",1.44 *
same,threo-Sphingosine (d18:1),"m28, high dose, Table 11a",1.38 *
same,4-Hydroxy-3-methoxyphenylglycol (HMPG),"m28, high dose, Table 11b",0.8 *
same,18-Hydroxy-11-deoxycorticosterone,"m28, high dose, Table 11b",0.07 *
same,21-Hydroxyprogesterone (11-Deoxycorticosterone),"m28, high dose, Table 11b",0.26 *
same,Citrate,"m28, high dose, Table 11b",0.9
same,Coenzyme Q9,"m28, high dose, Table 11b",0.95^
same,Coenzyme Q10,"m28, high dose, Table 11b",0.4 *
same,Corticosterone,"m28, high dose, Table 11b",0.07 *
same,Metanephrine,"m28, high dose, Table 11b",0.48 *
same,Palmitoleic acid (C16:cis[9]1),"m28, high dose, Table 11b",0.6 *
same,"Phosphatidylcholine (C16:0, C16:0)","m28, high dose, Table 11b",0.81 *
same,Progesterone,"m28, high dose, Table 11b",0.25 *
same,trans-4-Hydroxyproline,"m28, high dose, Table 11b",0.72 *
same,3-Hydroxybutyrate,"rat, in vivo",1.08^
same,Behenic acid (C22:0),"rat, in vivo",1.12 *
same,Cholesterol,"rat, in vivo",1.43 *
same,Coenzyme Q9,"rat, in vivo",1.04^
same,Cysteine,"rat, in vivo",1.21^
same,"Galactose, lipid fraction","rat, in vivo",1.23 *
same,"Glycerol phosphate, lipid fraction","rat, in vivo",1.28 *
same,Lignoceric acid (C24:0),"rat, in vivo",1.43 *
same,"Phosphatidylcholine (C16:0, C16:0)","rat, in vivo",1.12^
same,"Phosphatidylcholine (C18:0, C18:2)","rat, in vivo",1.13^
same,"Phosphatidylcholine (C18:0, C20:3)","rat, in vivo",1.14 *
same,"Phosphatidylcholine (C18:0, C22:6)","rat, in vivo",1.01^
same,Stearic acid (C18:0),"rat, in vivo",1.29 *
same,Tryptophan,"rat, in vivo",1.08 *
same,alpha-Tocopherol,"rat, in vivo",1.43 *
same,beta-Sitosterol,"rat, in vivo",1.24 *
same,"myo-Inositol-2-phosphate, lipid fraction","rat, in vivo",1.06 *
